From the PolyMetriX glass transition set
± gives the standard deviation of the reports.

SMILES | glass transition temperature [°C]
*Oc1c(Br)cc(S(=O)(=O)c2cc(Br)c(OC(*)=O)c(Br)c2)cc1Br (repeat unit) | 196.00
*Oc1ccc(OC(=O)c2ccc(OCCCCCCCCCCCCOc3ccc(C(*)=O)cc3)cc2)cc1/C=C/c1ccncc1 (repeat unit) | 94.30
*C(=O)c1ccc2c(c1)C(=O)N(c1ccc(OCCOCCOCCOc3ccc(N4C(=O)c5ccc(*)cc5C4=O)cc3)cc1)C2=O (repeat unit) | 200.00
*c1ccc(C(=O)Nc2ccc(Oc3ccc(S(=O)(=O)c4ccc(Oc5ccc(NC(=O)c6ccc(N7C(=O)c8ccc(-c9cccc%10c9C(=O)N(*)C%10=O)cc8C7=O)cc6)cc5)cc4)cc3)cc2)cc1 (repeat unit) | 287.00
*CC(O)COc1ccc(C2CC(C(C)C)CCC2(C)c2ccc(O*)cc2)cc1 (repeat unit) | 175.00
*c1cccc(-c2nc3cc(-c4ccc5nc(-c6ccccc6)c(*)nc5c4)ccc3nc2-c2ccccc2)c1 (repeat unit) | 320.00
*CC(*)CCCCCC (repeat unit) [Poly(hexylethylene)] | -54.58 ± 0.8
*O[Si](C)(C=C)O[Si](C)(C=C)O[Si](C)(C)c1ccc([Si](*)(C)C)cc1 (repeat unit) | -86.00
*c1ccc(Oc2ccc(S(=O)(=O)c3ccc(Oc4ccc(-c5cc(*)[nH]n5)cc4)cc3)cc2)cc1 (repeat unit) | 260.00
*O[Si](C)(CCC(F)(F)C(F)(F)C(F)(F)C(F)(F)C(F)(F)C(F)(F)F)O[Si](C)(C)c1ccc([Si](*)(C)C)cc1 (repeat unit) | -55.00
*CC(*)(C)C(=O)OCC1CCC1 (repeat unit) | 114.00
*CC(*)(C)C(=O)OCCC1CCCCC1 (repeat unit) | 110.00
*C(=O)Nc1ccc(Cc2ccc(NC(=O)c3ccc4c(c3)C(=O)N(c3ccc(/N=N/c5ccc(C)cc5)c(N5C(=O)c6ccc(*)cc6C5=O)c3)C4=O)cc2)cc1 (repeat unit) | 268.00
*C1C(*)C2CC1C(C(=O)OCCCc1ccccc1)C2C(=O)OCCCc1ccccc1 (repeat unit) | 200.00
*O[Si](C)(C=C)O[Si](C)(C)c1ccc([Si](*)(C)C)cc1 (repeat unit) | -63.00
*c1ccc(C(C)(C)c2ccc(C(C)(C)c3ccc(N4C(=O)c5ccc(Oc6ccc7cc(Oc8ccc9c(c8)C(=O)N(*)C9=O)ccc7c6)cc5C4=O)cc3)cc2)cc1 (repeat unit) | 246.00
*c1ccc(-c2ccc(-n3c(-c4ccc(Oc5ccc(S(=O)(=O)c6ccc(Oc7ccc(-c8nc9ccccc9n8*)cc7)cc6)cc5)cc4)nc4ccccc43)cc2)cc1 (repeat unit) | 289.00
*C(=O)Nc1cccc(C(=O)c2cccc(NC(=O)c3ccc4c(c3)C(=O)N(c3ccc(-c5sc(-c6ccc(N7C(=O)c8ccc(*)cc8C7=O)cc6)c(-c6ccccc6)c5-c5ccccc5)cc3)C4=O)c2)c1 (repeat unit) | 308.00
*Oc1ccc(C(=O)Nc2ccc(Cc3ccc(NC(=O)c4ccc(Oc5nc(*)nc(Sc6ccccc6)n5)cc4)cc3)cc2)cc1 (repeat unit) | 302.00
*Oc1ccc(/C=C2\CCC/C(=C\c3ccc(OC(=O)c4cccc(C(*)=O)c4)c(OC)c3)C2=O)cc1OC (repeat unit) | 57.86
*C(=O)Nc1ccc(-c2sc(-c3ccc(NC(=O)c4ccc5c(c4)C(=O)N(c4ccc(-c6sc(-c7ccc(N8C(=O)c9ccc(*)cc9C8=O)cc7)c(-c7ccccc7)c6-c6ccccc6)cc4)C5=O)cc3)c(-c3ccccc3)c2-c2ccccc2)cc1 (repeat unit) | 338.00

SMILES | glass transition temperature [°C]
*CC(*)C1CCCCC1 (repeat unit) [poly(vinylcyclohexane)] | 104.78 ± 28
*CC(CCCCCCCCCCCCCCCC)C(CCCCCCCCCCCCCCCC)COC(=O)c1ccc(C(=O)O*)cc1 (repeat unit) | -26.00
*Oc1ccc(/N=C/CCC/C=N/c2ccc(OC(=O)Nc3ccc(Cc4ccc(NC(*)=O)cc4)cc3)cc2)cc1 (repeat unit) | 76.00
*/C=C/c1cc(OCCCCCCCCCCCCCCCC)c(/C=C/c2ccc(*)cc2)cc1OCCCCCCCCCCCCCCCC (repeat unit) | 33.00
*CCOCCOCCOc1ccc(/C=C(\C)c2ccc(O*)cc2)cc1 (repeat unit) | 16.00
*C/C=C/C[Si](*)(CCCOc1ccccc1)c1ccccc1 (repeat unit) | -5.00
*c1ccc(-c2nc3cc(-c4ccc5nc(*)c(-c6ccc7ccccc7c6)nc5c4)ccc3nc2-c2ccc3ccccc3c2)cc1 (repeat unit) | 333.00
*C(=O)Oc1ccc(-c2ccc(OC(=O)c3ccc4c(c3)C(=O)N(c3ccc(Oc5ccc(N6C(=O)c7ccc(*)cc7C6=O)cc5)cc3)C4=O)cc2)cc1 (repeat unit) | 232.00
*c1ccc(Oc2cccc(Oc3ccc(N4C(=O)c5ccc(Oc6ccc7c(c6)C(=O)N(*)C7=O)cc5C4=O)cc3)c2)cc1 (repeat unit) | 208.2 ± 12
*O[Si](*)(C)CCc1cc(-c2nnc(-c3ccc(OCCCCCCCCCCCC)cc3)o2)ccc1-c1nnc(-c2ccc(OCCCCCCCCCCCC)cc2)o1 (repeat unit) | 156.00
*CC#CCOC(=O)CCCCCCCCC(=O)O* (repeat unit) | -26.50
*c1ccc(S(=O)(=O)c2ccc(-n3nccc3-c3cccc(-c4ccnn4*)c3)cc2)cc1 (repeat unit) | 218.00
*c1ccc(Oc2ccc(C(C)(C)c3ccccc3)cc2)c(N2C(=O)c3ccc(-c4ccc5c(c4)C(=O)N(*)C5=O)cc3C2=O)c1 (repeat unit) | 275.00
*CC(*)C(F)(F)F (repeat unit) [Poly(3,3,3-trifluoropropylene) ] | 27 ± 2.3
*CCCCCCNC(=O)c1cc(NC(=O)C(C(C)CC)N2C(=O)c3ccccc3C2=O)cc(C(=O)N*)c1 (repeat unit) | 135.00
*c1ccc(Cc2ccc(N3C(=O)C(C)C(SCCOCCSC4C(=O)N(c5ccc(Cc6ccc(N7C(=O)CC(C)(SCCOCCSC8(C)CC(=O)N(*)C8=O)C7=O)cc6)cc5)C(=O)C4C)C3=O)cc2)cc1 (repeat unit) | 105.00
*c1ccc(Oc2cccc(Oc3ccc(N4C(=O)c5cccc(Oc6ccc(Sc7ccc(Oc8cccc9c8C(=O)N(*)C9=O)cc7)cc6)c5C4=O)cc3)c2)cc1 (repeat unit) | 202.00
*CC(*)(C)C(=O)OCCn1c2ccccc2c2ccccc21 (repeat unit) | 148.00
*Oc1ccc(Oc2ccc(OC(=O)NC(=O)c3cc(C(=O)NC(*)=O)cc(C(C)(C)C)c3)cc2)cc1 (repeat unit) | 114.50
*/C=N/c1ccc(C(=O)OCCCCOCCCCOCCCCOC(=O)c2ccc(/N=C/c3ccc(*)s3)cc2)cc1 (repeat unit) | 25.00
*Oc1ccc(S(=O)(=O)c2ccc(Oc3ccc(C(C)(C)c4ccc(*)cc4)cc3)c(S(=O)(=O)O)c2)cc1S(=O)(=O)O (repeat unit) | 188.00

SMILES | glass transition temperature [°C]
*c1ccc(Oc2ccc(-c3c(-c4ccccc4)c4c(c(-c5ccccc5)c3-c3ccccc3)C(=O)N(c3cccc(N5C(=O)c6c(c(-c7ccccc7)c(-c7ccccc7)c(*)c6-c6ccccc6)C5=O)c3)C4=O)cc2)cc1 (repeat unit) | 357.00
*CCCCCCNC(=O)CCCCCC(=O)N* (repeat unit) | 54.00
*CCC(C)C(*)(C)C(=O)OC (repeat unit) | 45.00
*CCC(C)O[Si](C)(C)O* (repeat unit) | -88.00
*O[Si](*)(C)CCCCCCCCCCC(=O)Oc1ccc(-c2ccc(OC(=O)c3ccc(OCC)cc3)cc2)cc1 (repeat unit) | 103.40
*CCOCCOC(=O)CCCC(=O)O* (repeat unit) | -55.00
*Oc1ccc(CC(NC(=O)CCc2ccc(OC(=O)CCCCCCC(*)=O)cc2)C(=O)OCC)cc1 (repeat unit) | 50.00
*CCCOC(=O)CCCCCCC(=O)O* (repeat unit) | -52.50
*Oc1ccc(S(=O)(=O)c2ccc(Oc3ccc(C(=C)c4ccc(*)cc4)cc3)cc2)cc1 (repeat unit) | 167.00
*Oc1ccc(S(=O)(=O)c2ccc(Oc3ccc(/C=C4\CCCC/C(=C\c5ccc(Oc6ccc(S(=O)(=O)c7ccc(Oc8ccc(C(C)(C)c9ccc(*)cc9)cc8)cc7)cc6)cc5)C4=O)cc3)cc2)cc1 (repeat unit) | 188.00
*Oc1ccc(/N=C/C=N/c2ccc(OC(=O)Nc3cc(NC(*)=O)ccc3C)cc2)cc1 (repeat unit) | 76.00
*CCCCCC(=O)N* (repeat unit) [Poly(6-aminohexanoic acid)] | 55.73 ± 5.6
*C(=O)CCCCCCCCC(=O)N1CC(C)N(*)CC1C (repeat unit) | -60.50
*c1cccc(Cc2cccc(N3C(=O)c4ccc([Si](C)(C)c5ccc6c(c5)C(=O)N(*)C6=O)cc4C3=O)c2)c1 (repeat unit) | 238.00
*c1ccc(Oc2ccc(S(=O)(=O)c3ccc(Oc4ccc(-c5nc(-c6cccc(-c7nc(*)c(-c8ccccc8)[nH]7)c6)[nH]c5-c5ccccc5)cc4)cc3)cc2)cc1 (repeat unit) | 292.00
*/C=C/c1cc(OCC(CC)CCCC)c(/C=C/c2ccc3c4ccc(*)cc4n(CC(CC)CCCC)c3c2)cc1OCC(CC)CCCC (repeat unit) | 61.00
*c1ccc(CC(=O)Nc2ccc(-c3ccc(NC(=O)Cc4ccc(-c5sc(*)c(-c6ccccc6)c5-c5ccccc5)cc4)cc3)cc2)cc1 (repeat unit) | 272.00
*CC(*)(C)C(=O)OCC1(C)COCOC1 (repeat unit) | 142.00
*C(*)(F)Cl (repeat unit) | 77.00
*OC(=O)c1ccc(CCCCCc2ccc(C(*)=O)cc2)cc1 (repeat unit) | 42.50
*OC1C(COCO)OC(*)C(O)C1O (repeat unit) | 208.00
